As usually defined, the solubility (kinetic) is the concentration staying in solution when a stock, usually in DMSO, is diluted into the medium.

Values after ≈ are worked out from the molar mass of the structure shown.

From PubChem BioAssay AID1996 come the findings set out here.

The conditions of this data set: buffer; pH 7.4; 200.0 µM.
Molecule `COC1(NC(=O)c2ccccc2)C(C)=CC(=O)C=C1C` displayed a kinetic solubility of 40 µg/mL (≈ 147 µM). The result for `Cc1ccc(CNC(=O)c2cc(Cl)cc(Cl)c2)n1C` reads 11.1 µg/mL (≈ 37.4 µM); that for `CCOC(=O)c1c(/N=C/C2C(=O)NC(=O)NC2=O)sc2c1CCC2`, 5.4 µg/mL (≈ 15.5 µM). The result for `COc1cc(S(=O)(=O)N2CCOCC2)cc(C(=O)NCC(c2cccs2)N2CCOCC2)c1OC` (stereo not drawn) reads 7.4 µg/mL (≈ 14.1 µM); that for `O=C(Cc1ccc(Cl)cc1)N1CCc2ccccc2C1`, 37.2 µg/mL (≈ 130 µM). In the case of `CC1CN(C(=S)Nc2cccc(Cl)c2)CC(C)O1` (stereo not drawn) it was > 42.7 µg/mL. On to `COc1ccc(C2(c3ccc(OC)cc3)NC(=O)NC2=O)cc1`, for which the kinetic solubility is > 46.8 µg/mL. Consider `Cc1sc2ncnc(Nc3ccc(O)cc3)c2c1C`, for which the solubility (kinetic) came to 1.7 µg/mL (≈ 6.27 µM). In the case of `c1ccc(-c2cn(-c3ccccc3)c3ncnc(N4CCCCC4)c23)cc1` it was < 0.2 µg/mL; in that of `Cc1cc(NC(=O)CN2C(=O)NC(CC(C)C)C2=O)no1` (stereo not drawn), > 44.1 µg/mL; in that of `Cc1ccc2nc(SCC(=O)Nc3ncccn3)[nH]c2c1`, > 44.9 µg/mL. The result for `NC(=O)C1CCN(C(=S)NC2CC3C=CC2C3)CC1` (stereo not drawn) reads > 41.9 µg/mL; that for `O=c1c2ccccc2ncn1Cc1ccccc1`, 31.5 µg/mL (≈ 133 µM); that for `Cc1cc(Oc2ccc(OCC(N)=O)nn2)nc(Cl)n1`, > 44.4 µg/mL. In the case of `Cc1ccc(C2Nc3ccccc3C(=O)N2CCCN2CCOCC2)cc1` (stereo not drawn) it was 50.3 µg/mL (≈ 138 µM); in that of `O=C(CN1C(=O)NC2(CCCCCCC2)C1=O)Nc1cccc(Br)c1`, 8.2 µg/mL (≈ 20.1 µM); in that of `O=C(NC(=S)Nc1ccc(F)c(Cl)c1)C1CC1`, 2.3 µg/mL (≈ 8.43 µM). Regarding `COCCNC(=O)/C(C#N)=C/c1ccccc1Br`, the solubility (kinetic) is > 46.4 µg/mL. In the case of `CCCn1c(Nc2cccc(OC)c2)nc2ccccc21` it was 2.1 µg/mL (≈ 7.46 µM); in that of `Cn1c(Nc2cccc(Cl)c2)nc2ccccc21`, 5.5 µg/mL (≈ 21.3 µM). The result for `Cc1ccc(C(=O)NCCN2CCOCC2)cc1[N+](=O)[O-]` reads > 44 µg/mL. In the case of `Cc1cc2nc3c(=O)[nH]c(=S)[nH]c3nc2cc1NC(=O)C(F)(F)F` it was 26.8 µg/mL (≈ 75.4 µM); in that of `Cc1cc(C)cc(OC(C)C(=O)Nc2ccc3c(c2)n(C)c(=O)n3C)c1` (stereo not drawn), 37.9 µg/mL (≈ 107 µM); in that of `Cc1cc(C(=O)N2CCOCC2)c(C)o1`, > 31.4 µg/mL.

For `O=C(CN1C(=O)COc2ccccc21)NCCCN1CCOCC1`, the solubility (kinetic) was > 50 µg/mL. In the case of `CC1CCC(NC(=O)C(C)N2C(=O)C3CCCCC3C2=O)CC1` (stereo not drawn) it was > 48.1 µg/mL; in that of `Cc1ccc(C(=O)OCC(=O)N2CCOCC2)c(C)c1`, 34 µg/mL (≈ 123 µM); in that of `CC1CCCN(C(=O)c2ccc([N+](=O)[O-])o2)C1` (stereo not drawn), > 35.7 µg/mL. In the case of `Cc1ccccc1NC(=O)N1CCc2ccccc2C1`, the solubility (kinetic) is > 40 µg/mL. In the case of `CC(C)CN(C(=O)CCNC(=O)c1ccc([N+](=O)[O-])cc1)C1CCS(=O)(=O)C1` (stereo not drawn) it was 57 µg/mL (≈ 139 µM); in that of `Clc1cccc(Cl)c1C[n+]1cccc2ccccc21.[Br-]`, 51.6 µg/mL; in that of `CN(CCc1ccccc1)Cc1nc(-c2cnccn2)no1`, 44 µg/mL (≈ 149 µM). The result for `CCN(CC)C(=O)c1ccc(O)c(OC)c1` reads > 33.5 µg/mL; that for `O=S(=O)(c1ccc(Cl)cc1)N1CCN(CCc2ccncc2)CC1`, 18.3 µg/mL (≈ 50 µM).

The molecule `O=C1NC(=Nc2ccccc2)S/C1=C\c1cccs1` registered a solubility (kinetic) of 1 µg/mL (≈ 3.49 µM).

`C=CCSc1nc(N)cc(=O)[nH]1`: the kinetic solubility is > 27.5 µg/mL. In turn, `CCOc1ccc(C(=O)Nc2ccccc2OC(F)F)cc1` displayed a solubility (kinetic) of 6.1 µg/mL (≈ 19.9 µM). `Cc1cc(OCc2cccc(Cl)c2)c(C)cc1CN1CCOCC1` had a kinetic solubility of 1 µg/mL (≈ 2.89 µM). In the case of `CSc1cccc(NS(=O)(=O)c2cn(C)cn2)c1` it was 14.2 µg/mL (≈ 50.1 µM); in that of `CCOc1ccccc1NC(=O)N1CCCN(c2ncccc2C#N)CC1`, 45.7 µg/mL (≈ 125 µM); in that of `COc1ccc(S(=O)(=O)N2CCCN(C)CC2)cc1.Cl`, > 48.1 µg/mL. As to `Cc1ccc(CSCc2ccc(C(=O)NCC3CCCO3)o2)cc1` (stereo not drawn), the kinetic solubility came out at 39.4 µg/mL (≈ 114 µM).

In the case of `O=C(Nc1cccc(NC(=O)c2cccs2)c1)c1ccc(F)cc1`, the kinetic solubility is < 0.4 µg/mL. The result for `COc1ccc(NC(=O)Cc2ccc(Cl)cc2Cl)cn1` reads 33.8 µg/mL (≈ 109 µM); that for `Br.CCCN(CCC)C1CCc2cccc(O)c2C1` (stereo not drawn), > 49.2 µg/mL; that for `O=C1CCCC/C1=C\Nc1ccc(S(=O)(=O)Nc2cnc3ccccc3n2)cc1`, 15.9 µg/mL (≈ 38.9 µM). With `O=C(CN1C(=O)S/C(=C/c2ccncc2)C1=O)Nc1ccccc1`, the kinetic solubility came out at 5.5 µg/mL (≈ 16.2 µM). For `Nc1nc(NCc2ccco2)nc(Nc2ccccc2)c1[N+](=O)[O-]`, the solubility (kinetic) was 0.4 µg/mL (≈ 1.23 µM). The result for `O=C(COC(=O)C1CCC1)Nc1ccc(Cl)cn1` reads > 40.3 µg/mL. Take `Cc1cc(C)c(C(=O)N2CCCC(Nc3ccc(F)cc3)C2)o1` (stereo not drawn): the kinetic solubility was > 47.5 µg/mL. In the case of `Cc1nc([N+](=O)[O-])cn1CC(O)c1ccccc1` (stereo not drawn) it was > 37.1 µg/mL; in that of `CC(OC(=O)c1cnc2ccccc2n1)c1ccccc1Cl` (stereo not drawn), 14.8 µg/mL (≈ 47.3 µM). In the case of `COC(OC)C1Nc2ccccc2C(=O)N1c1ccc(F)cc1` (stereo not drawn) it was > 47.4 µg/mL.

`COc1ccc(C(=O)N/C(=C\c2ccco2)C(=O)OCc2ccco2)cc1`: the kinetic solubility is > 55.1 µg/mL. `CC(=O)N/C(N)=N/c1nc2cc(C)ccc2o1`: the solubility (kinetic) came to 3.3 µg/mL (≈ 14.2 µM). With `Cc1cccc(NC(=O)CNC(=O)c2ccccc2Cl)n1`, the solubility (kinetic) is > 45.6 µg/mL.

Molecule `Cc1ccc(NC(=O)CN2CCc3ccccc3C2)cc1F` came in with a kinetic solubility of 23.1 µg/mL (≈ 77.4 µM). The result for `Cc1c(Cl)cccc1NC(=O)c1ccco1` reads > 35.4 µg/mL. The result for `CNc1nc(-c2ccccc2)[n+](-c2ccc(C)cc2)s1.[Br-]` reads 42.1 µg/mL; that for `CCCn1cnc2cc(NCc3cccs3)ccc21`, > 40.7 µg/mL; that for `Nc1sc2c(c1C(=O)NCCc1ccccc1)CCC2`, 17 µg/mL (≈ 59.4 µM). The result for `Cc1cnc(C(=O)NC2CCSc3ccccc32)cn1` (stereo not drawn) reads 26.2 µg/mL (≈ 91.8 µM). As for `O=C(OCc1ccccc1)c1cnc(Cl)c(Cl)c1`, the kinetic solubility was 2.1 µg/mL (≈ 7.44 µM).

In turn, `COc1ccc(C(C)=O)cc1CC(=O)Nc1ccc2c(c1)CCC2` registered a solubility (kinetic) of 7.9 µg/mL (≈ 24.4 µM). The result for `Nc1ccc(Oc2c(Cl)cccc2Cl)nc1` reads > 38.3 µg/mL; that for `CN1C(=O)C(c2ccc([N+](=O)[O-])cc2[N+](=O)[O-])C(=O)N(C)C1=O`, > 48.3 µg/mL.

`CCCCCN1CC(O)=C(c2nc3ccccc3[nH]2)C1=N`: the kinetic solubility was found to be 1.1 µg/mL (≈ 3.87 µM).

For `O=C(CN1C(=O)COc2ccc(Cl)cc21)Nc1nccs1`, the solubility (kinetic) was 1.4 µg/mL (≈ 4.32 µM). Take `CN1C(=O)c2ccc(NC(=O)CSc3ccccc3)cc2C1=O`: the solubility (kinetic) came out at 6.3 µg/mL (≈ 19.3 µM). The result for `COc1ccc(CC(=O)NC(=S)Nc2cccc(CO)c2)cc1` reads 49.3 µg/mL (≈ 149 µM); that for `CCOC(=O)C(C)Sc1nc(N2CCOCC2)c2c(c1C#N)CC(C)(C)OC2` (stereo not drawn), 38.8 µg/mL (≈ 95.7 µM); that for `O=C(CSc1ccccn1)Nc1ccc2c(c1)OCO2`, > 43.2 µg/mL.

As to `CC(=O)C(C)n1cnc2scc(-c3ccc(C)cc3)c2c1=O` (stereo not drawn), the kinetic solubility was found to be 44.6 µg/mL (≈ 143 µM). In the case of `CCC1Oc2ccc(C)cc2N(CC(=O)NCC2CCCO2)C1=O` (stereo not drawn) it was 43.6 µg/mL (≈ 131 µM); in that of `CN1CCN(c2ccc(C(=O)NC3CCCCC3)cc2[N+](=O)[O-])CC1`, 49.7 µg/mL (≈ 143 µM); in that of `O=C(Nc1c[nH]c(=O)[nH]c1=O)c1cc([N+](=O)[O-])cc([N+](=O)[O-])c1`, 16.7 µg/mL (≈ 52 µM).

Regarding `O=C(COC(=O)c1ccc(Br)o1)Nc1ccc2c(c1)OCCO2`, the solubility (kinetic) was determined as 5.1 µg/mL (≈ 13.3 µM). In the case of `O=C(COC(=O)/C=C/c1ccc(F)cc1)NCC1CCCO1` (stereo not drawn) it was > 46.1 µg/mL; in that of `O=[N+]([O-])c1cccc(CN2CCCCCC2)c1`, 31.7 µg/mL (≈ 135 µM); in that of `CCOc1ccccc1Nc1ccc(C(=O)O)cc1[N+](=O)[O-]`, 40.8 µg/mL (≈ 135 µM). The result for `CCOC(=O)NN1C(=O)c2ccccc2NC1c1cccnc1` (stereo not drawn) reads > 46.8 µg/mL; that for `O=C(COc1ccc(Cl)cc1)NCCc1ccccn1`, 37.2 µg/mL (≈ 128 µM); that for `OCCCNc1ncnc2c1[nH]c1ccccc12`, 35.6 µg/mL (≈ 147 µM). `CN(Cc1ccc2c(c1)OCCO2)C(=O)CN1C(=O)NC2(CCCCC2)C1=O` showed a solubility (kinetic) of 50.2 µg/mL (≈ 130 µM). The molecule `CC(C)c1ccc(CSc2ccc(S(=O)(=O)N3CCOCC3)cn2)cc1` yielded a solubility (kinetic) of 1.9 µg/mL (≈ 4.84 µM). Take `CC1CN(c2ccccc2)c2nc3c(c(=O)[nH]c(=O)n3C)n2C1` (stereo not drawn): the solubility (kinetic) is > 46.7 µg/mL. The result for `CCCCCCCc1c(O)nc(SCCN(C)C)[nH]c1=O.Cl` reads > 52.5 µg/mL.

`CC1CC1C(=O)Nc1cc(C(F)(F)F)ccc1N1CCOCC1` (stereo not drawn) registered a solubility (kinetic) of 40.9 µg/mL (≈ 125 µM).

In the case of `CC(NC(=O)C1CCN(C(=O)c2ccc(F)cc2)CC1)c1ccc(S(N)(=O)=O)cc1` (stereo not drawn), the solubility (kinetic) is > 65 µg/mL. The molecule `COc1ccc(C(=O)/C=C/Nc2cc(C)ccn2)cc1` came in with a kinetic solubility of 5.8 µg/mL (≈ 21.6 µM). In the case of `COc1ccc(CCNC(=O)C2CC2)cc1` it was 32.4 µg/mL (≈ 148 µM); in that of `Cc1[nH]c2ccccc2c1C(=O)COC(=O)c1ccccc1O`, 4.6 µg/mL (≈ 14.9 µM). In the case of `O=C(CSc1nc2sc3c(c2c(=O)[nH]1)CCC3)NCCO`, the kinetic solubility was > 48.8 µg/mL. `Cc1cc(C)c2nc(N3CCOCC3)c(C#N)cc2c1`: the kinetic solubility came out at 0.2 µg/mL (≈ 0.748 µM).

Turning to `O=C(CCCC(=O)c1ccccc1)NCCc1ccccc1`, the kinetic solubility was > 44.3 µg/mL. In the case of `Cc1ccc(NC(=O)CN(C)C(=O)C2COc3ccccc3O2)cc1` (stereo not drawn) it was 47.4 µg/mL (≈ 139 µM); in that of `O=C(CN1c2cccc3cccc(c23)S1(=O)=O)N1CCCCC1`, > 49.6 µg/mL; in that of `CCNC(=O)NC(=O)C(C)OC(=O)c1ccc(SC)cc1OC` (stereo not drawn), > 51.1 µg/mL. For `CCc1ccc(Nc2nc(C)cc(C)n2)cc1.Cl`, the kinetic solubility was 18.4 µg/mL.

With `O=C1CC2(CCCC2)C(=O)N1CN1CCN(S(=O)(=O)c2ccc(F)cc2F)CC1`, the solubility (kinetic) is > 64.1 µg/mL. In the case of `O=C(N/C(=C/c1ccco1)C(=O)N1CCc2ccccc21)c1ccco1` it was 4.4 µg/mL (≈ 12.6 µM); in that of `CC(C)(C)c1ccccc1OCC(=O)NCc1ccccc1`, 1.8 µg/mL (≈ 6.05 µM); in that of `COc1ccccc1NC(=S)N(Cc1ccccc1)Cc1cccnc1`, 45.8 µg/mL (≈ 126 µM).
